In the experiment the test system is clinically latent microorganisms. The experiment in a line: Screening for ability to kill clinically latent microorganisms (method of WO2000028074). As to conditions: observed by the Applicant. It is filed as cell-based. From the text: International Patent Application, Publication Number WO2000028074 describes a method of screening compounds to determine their ability to kill clinically latent microorganisms. […] This observation has necessitated the development of novel antimicrobials which may be used to kill clinically latent microorganisms.
By way of example, WO2000028074 describes a suitable method of screening compounds to determine their ability to kill clinically latent microorganisms. A typical method may include the following steps: • (1) growing a bacterial culture to stationery phase; • (2) treating the stationery phase culture with one or more antimicrobial agents at a concentration and or time sufficient to kill growing bacteria, thereby selecting a phenotypically resistant sub-population; • (3) incubating a sample of the phenotypically resistant subpopulation with one or more test compounds or agents; and • (4) assessing any antimicrobial effects against the phenotypically resistant subpopulation.

Consider two molecules from patent US9789101B2, “Methods and compositions for treating microbial infection using pyrroloquinone” (HELPERBY THERAPEUTICS LIMITED, priority 2010, dated 2017).

Each structure is given as a SMILES string.

Turning to `CC[C@H]1OC(=O)[C@H](C)[C@@H](O[C@H]2C[C@@](C)(OC)[C@@H](O)[C@H](C)O2)[C@H](C)[C@@H](O[C@@H]2O[C@H](C)C[C@H](N(C)C)[C@H]2O)[C@](C)(O)C[C@@H](C)CN(C)[C@H](C)[C@@H](O)[C@]1(C)O` [azithromycin], the “activity against clinically latent microorganisms” value is given as “little or no activity”.

In the case of `CC(=O)NC[C@H]1CN(c2ccc(N3CCOCC3)c(F)c2)C(=O)O1` [linezolid], the “activity against clinically latent microorganisms” value was “little or no activity”.
